Measured values from the NIST ThermoML archive (doi:10.1021/acs.jced.9b00525).
Numbers after ± are expanded uncertainties.

Conditions: Surface laser light scattering (SLLS); for viscosity: Liquid

Row | surface tension liquid-gas (293.15 K) [mN/m] | viscosity (293.15 K) [mPa·s] | surface tension liquid-gas (303.15 K) [mN/m] | viscosity (303.15 K) [mPa·s] | surface tension liquid-gas (313.15 K) [mN/m] | viscosity (313.15 K) [mPa·s] | surface tension liquid-gas (323.15 K) [mN/m] | viscosity (323.15 K) [mPa·s] | surface tension liquid-gas (348.15 K) [mN/m] | viscosity (348.15 K) [mPa·s] | surface tension liquid-gas (373.15 K) [mN/m] | viscosity (373.15 K) [mPa·s] | surface tension liquid-gas (398.15 K) [mN/m] | viscosity (398.15 K) [mPa·s] | surface tension liquid-gas (423.15 K) [mN/m] | viscosity (423.15 K) [mPa·s] | surface tension liquid-gas (448.15 K) [mN/m] | viscosity (448.15 K) [mPa·s] | surface tension liquid-gas (473.15 K) [mN/m] | viscosity (473.15 K) [mPa·s] | also measured | SMILES
1 | 23.05 ± 0.57 | 0.9005 ± 0.029 | 22.39 ± 0.48 | 0.79 ± 0.026 | 21.43 ± 0.46 | 0.6924 ± 0.025 | 20.61 ± 0.44 | 0.6091 ± 0.022 | 18.75 ± 0.39 | 0.4636 ± 0.019 | 16.52 ± 0.36 | 0.3614 ± 0.016 | 14.38 ± 0.31 | 0.2895 ± 0.015 | 12.4 ± 0.32 | 0.2403 ± 0.013 | 10.29 ± 0.22 | 0.1978 ± 0.012 | 8.52 ± 0.23 | 0.1677 ± 0.012 | surface tension liquid-gas (283.15 K): 23.94 ± 0.52 mN/m; viscosity (283.15 K): 1.077 ± 0.035 mPa·s; surface tension liquid-gas (498.15 K): 6.58 ± 0.16 mN/m; viscosity (498.15 K): 0.1366 ± 0.011 mPa·s; surface tension liquid-gas (523.15 K): 4.97 ± 0.12 mN/m; viscosity (523.15 K): 0.1138 ± 0.01 mPa·s; surface tension liquid-gas (548.15 K): 3.43 ± 0.1 mN/m; viscosity (548.15 K): 0.0974 ± 0.01 mPa·s; surface tension liquid-gas (573.15 K): 1.94 ± 0.09 mN/m; viscosity (573.15 K): 0.0762 ± 0.0098 mPa·s | CCCCCCCCCC [decane]
2 | 21.31 ± 0.24 | 0.5523 ± 0.021 | 20.53 ± 0.23 | 0.4828 ± 0.019 | 19.45 ± 0.22 | 0.432 ± 0.018 | 18.64 ± 0.21 | 0.387 ± 0.017 | 16.37 ± 0.21 | 0.3079 ± 0.015 | 14 ± 0.14 | 0.2487 ± 0.014 | 11.9 ± 0.12 | 0.2028 ± 0.013 | 9.81 ± 0.15 | 0.1665 ± 0.012 | 7.88 ± 0.07 | 0.1393 ± 0.011 | 5.82 ± 0.1 | 0.1168 ± 0.01 | surface tension liquid-gas (283.15 K): 22.25 ± 0.19 mN/m; viscosity (283.15 K): 0.6247 ± 0.023 mPa·s; surface tension liquid-gas (498.15 K): 4 ± 0.13 mN/m; viscosity (498.15 K): 0.0947 ± 0.01 mPa·s; surface tension liquid-gas (523.15 K): 2.32 ± 0.06 mN/m; viscosity (523.15 K): 0.0755 ± 0.0095 mPa·s | CCCCCCCC [octane]
3 | 27.38 ± 0.64 | 3.486 ± 0.1 | 26.6 ± 0.7 | 2.772 ± 0.095 | 25.56 ± 0.31 | 2.261 ± 0.081 | 24.28 ± 0.41 | 1.84 ± 0.061 | 22.19 ± 0.31 | 1.236 ± 0.047 | 20.31 ± 0.23 | 0.8927 ± 0.03 | 18.54 ± 0.14 | 0.6788 ± 0.024 | 16.69 ± 0.25 | 0.5351 ± 0.02 | 15.09 ± 0.14 | 0.4256 ± 0.018 | 13.26 ± 0.21 | 0.344 ± 0.016 | surface tension liquid-gas (498.15 K): 11.46 ± 0.19 mN/m; viscosity (498.15 K): 0.2862 ± 0.015 mPa·s; surface tension liquid-gas (523.15 K): 9.72 ± 0.28 mN/m; viscosity (523.15 K): 0.236 ± 0.013 mPa·s; surface tension liquid-gas (548.15 K): 8.25 ± 0.22 mN/m; viscosity (548.15 K): 0.1937 ± 0.013 mPa·s; surface tension liquid-gas (573.15 K): 7 ± 0.29 mN/m; viscosity (573.15 K): 0.1705 ± 0.012 mPa·s | CCCCCCCCCCCCCCCC [hexadecane]
4 | 18.22 ± 0.17 | 0.3127 ± 0.015 | 17.34 ± 0.19 | 0.2809 ± 0.014 | 16.22 ± 0.21 | 0.2546 ± 0.014 | 15.31 ± 0.14 | 0.234 ± 0.013 | 12.94 ± 0.12 | 0.1905 ± 0.012 | 10.53 ± 0.1 | 0.155 ± 0.011 | 8.21 ± 0.08 | 0.1268 ± 0.011 | 5.98 ± 0.06 | 0.1026 ± 0.01 | 3.75 ± 0.07 | 0.0837 ± 0.0097 | 1.89 ± 0.03 | 0.0655 ± 0.0093 | surface tension liquid-gas (283.15 K): 19.28 ± 0.22 mN/m; viscosity (283.15 K): 0.3495 ± 0.016 mPa·s | CCCCCC [hexane]
